≈ marks a conversion by molar mass, not a printed value. Where two headings read alike, the source gives them in different places.
How the values were obtained:
[1] = test system: healthy human skin cells (HaCaT cell line); assay: Scratch assay, HaCaT cells; assay type: cell-based; details: Doxorubicin 15 ng/ml and 5 ng/ml
Protocol: (§1) The cells of A-549, A-431, NRK, HaCaT, MM-4, normal fibroblasts (derived from the Bank of Cell Lines from human and animal tissues, R. E. Kavetsky Institute of Experimental Pathology, Oncology and Radiobiology, National Academy of Sciences of Ukraine) were cultured in complete culture medium RPMI 1640/DMEM (PAA, Austria) (depending on the cell type) supplemented with 10% fetal calf serum (PAA, Austria) and incubated in 5% CO2 humidified atmosphere at 37° C. The culture medium was replaced in 2 to 3 days and the cells were passaged in 4 to 5 days.
(§2) Analysis of the influence of the components under study on the cell migration rate was performed using the scratch assay method. […]
(§3) The plate was incubated in a CO2 incubator for additional 48 hours. After the cells formed a dense monolayer it was damaged (by making a “scratch”) and the growth medium was replaced to remove cell debris and smooth the edges of the “scratch.” The rate of cell migration was analyzed using an inverted microscope and by photographing cells in the area of injury. The migration activity of cells was fixed at several time points (depending on the cell line analyzed). The microphotomicrographs were analyzed and the cell incubation time needed to restore the monolayer was determined for all experimental groups. […]

[2] = test system: human epidermoid carcinoma cells (A-431 cell line); assay: Scratch assay, A-431 cells
Protocol: as §1, §2, §3

[3] = test system: renal cell carcinoma (PA) cells; assay: Viability of PA tumor cells (trypan blue, crystal violet; live-dead); assay type: cell-based, rat; details: for IC50: Rattus norvegicus; for dose for 50% live, 50% dead: natural isotope distribution
Text: To make the analysis, the cell suspension, after it was exposed to the action of materials, in a volume of 20 mcl was mixed with 20 mcl of trypan blue solution and resuspended. The obtained solution was placed in a hemocytometer chamber for visual analysis and quantitative estimation of the cells. To make the quantitative estimation of the cells, they were separated from the substrate using Versene solution and counted by staining cells with trypan. A change in the color of a cell was indicative of the violation of intactness of the cell membrane, and the more pronounced was the coloration, the less viable the cell was. […] They are easily distinguishable from dark damaged cells and easily identified with ordinary light microscope.
Alluding to the above, staining the Cells with Crystal Violet and their Quantitative Analysis will be discussed. Utilization of this method of assessment in the experiment makes it possible to quantify cells classified according to the living-dead criterion. The method is based on statistical evaluation of cells able to adhere to the substrate (to the plastic plate), cells capable of further proliferation. The criterion of the evaluation is the degree of optical permeability of a well with the cell sediment for a luminous flux of a certain wavelength. Removal of the culture medium from the wells is also accompanied by removal of non-adhering and unstained cells from the substrate, and adhesion and staining of the residue left on the substrate provides a quantitative characteristic of the number of cells which are capable of further division and multiplication.
Alluding to the above, viable tumor cells capable of further proliferation were fixed to the plastic surface and stained blue (after they were exposed to the action of components with natural distribution of isotopes) using the dye powder dissolved in 70% methanol solution. After 10 minutes the dye was removed from the wells with a micropipette and the cells were thoroughly rinsed three times with clean running water. The cell sediment fixed by the dye was dissolved with ethanol followed by determination of its concentration (which is indicative of the number of viable cells) and fixed via multi-well spectrophotometer with an excitation wave 540 nm in length.
Analysis of the effect of all components on the renal cell carcinoma (PA) was conducted to determine the relationship between the amount of the preparation (concentration characteristics of the component) and the quantitative characteristics of the cells. Assessment of the effect of the components was carried out on 2 concentration models with 30 and 300 thousand original tumor cells. After the cells were cultured, cell suspensions were prepared in the plates with the culture medium and an effect of the preparations (in various concentrations) on the tumor cells was assessed. The experiment was started with the concentration of 10 mg of the active substance per 1 ml of the solvent (saline with 5% glucose).
After the action of components with natural isotope distribution on PA tumor cells (in all 9 concentration dilutions of the preparations), they were stained with trypan blue. Staining cells (after the effect of the components) in blue is indicative of the respiratory impairment of the cells, which allows of classifying them as non-viable tumor units. The part of the cells remained uncolored is characterized as viable with the ability for further proliferation. […] The assessment was performed on 14 plates with 300 thousand cells in each well by counting the number of viable cells in the Goryaev chamber. Quantitative analysis of the cells was performed visually every 10 hours of the experiment.

[4] = test system: normal rat kidney cells (NRK cell line); assay: Scratch assay, NRK cells; assay type: cell-based; details: Doxorubicin 15 ng/ml; control 30 hours
Protocol: as §1
(§4) Analysis of the influence of the components under study on the cell migration rate was performed using the scratch assay method. Cells (5×10^4/well) were seeded into the wells of a 12-well plate in 2 repeats in RPMI-1640/DMEM culture medium supplemented with 10% PBS, 40 mcg/ml of gentamicin and incubated in 5% CO2 humidified atmosphere at 37° C. for 24 hours.
(§5) The plate was incubated in a CO2 incubator for additional 48 hours. After the cells formed a dense monolayer it was damaged (by making a “scratch”) and the growth medium was replaced to remove cell debris and smooth the edges of the “scratch.” The rate of cell migration was analyzed using an inverted microscope and by photographing cells in the area of injury. The migration activity of cells was fixed at several time points (depending on the cell line analyzed). The microphotomicrographs were analyzed and the cell incubation time needed to restore the monolayer was determined for all experimental groups.

[5] = test system: stem cells derived from rat fibroblasts (RF); assay type: cell-based
[6] = test system: normal rat kidney cells (NRK cell line); assay: Effect on normal rat kidney cells versus Doxorubicin; details: for live cells: 16 mcg/ml
Text: An immortalized cell line is a stable, capable of unlimited proliferation cell line that consists of cells with […] in culture.

A-549 cell line = assay: Scratch assay, A-549 cells
Protocol: as §1, §4, §5

[7] = test system: human melanoma tumor cells (MM-4 cell line); assay: Scratch assay, MM-4 cells; assay type: cell-based; details: Doxorubicin at 2 concentrations (0.1 and 0.01 mcg/ml)
Protocol: as §1, §2, §3

[8] = test system: normal rat kidney cells (NRK line); assay: Immunocytochemistry of NRK cells; assay type: cell-based
Protocol: When making the immunocytochemistry (ICC) assay, cells on microscope glasses (cytospin preparations) were fixed in the solution (methanol+acetone 1:1) for 2 hours at t 20° C. and incubated with 1% solution of bovine serum albumin (BSA) for 20 minutes. Then the monoclonal antibodies-CD44 (Diagnostic BioSystems), E-cadherin (ThermoScientific), N-cadherin (NeoMarker, BioLegend), SLUG (GeneTex)—were applied for the time period specified by the manufacturer (30 to 60 minutes), after which the Poly Vue imaging system conjugated with peroxidase was used and the enzyme activity was detected using diaminobenzidine (ThermoScientific) as a substrate. After the immunocytochemical reaction the preparations were washed with water and counterstained with hematoxylin-eosin (for 15 to 30 seconds).
The results were analyzed by counting cells with expression (brown colored cells) using a light microscope, and were assessed using the classical H-Score method: S=1×A+2×B+3×C, where S is the H-Score index giving a range of 0 (protein is not detected) to 300 (high-level expression in 100% of the cells); A is the percentage of weakly staining cells, B is the percentage of moderately staining cells and C is the percentage of strongly staining cells.

[9] = test system: renal cell carcinoma (PA) cells; assay: Immunocytochemistry (H-Score) of PA cells; assay type: cell-based, rat
Protocol: When making the immunocytochemistry (ICC) assay, cells on microscope glasses (cytospin preparations) were fixed in the solution (methanol+acetone 1:1) for 2 hours at t 20° C. and incubated with 1% solution of bovine serum albumin (BSA) for 20 minutes. Then the monoclonal antibodies—CD44 (Diagnostic BioSystems), E-cadherin (ThermoScientific), N-cadherin (NeoMarker, BioLegend)—were applied for 60 minutes, after which the Poly Vue imaging system conjugated with peroxidase was used and the enzyme activity was detected using diaminobenzidine (ThermoScientific) as a substrate.
After the immunocytochemical reaction the preparations were washed with water and counterstained with hematoxylin-eosin (for 15-30 seconds). The results were analyzed by counting cells with expression (brown colored cells), using a light microscope and were assessed using the classical H-Score method: S=1×A+2×B+3×C, where S is the H-Score index giving a range of 0 (protein is not detected) to 300 (high-level expression in 100% of the cells); A is the percentage of weakly stained cells, B is the percentage of moderately stained cells and C is the percentage of strongly stained cells.

[10] = Zn sulfate 80 mcg/ml, trypan blue

COc1cccc2c1C(=O)c1c(O)c3c(c(O)c1C2=O)C[C@@](O)(C(=O)CO)C[C@@H]3O[C@H]1C[C@H](N)[C@H](O)[C@H](C)O1 [Doxorubicin]
cell migration rate [1]: inhibition of the cell migration rate
time for the cell monolayer repair ([2]; Doxorubicin 0.02 mg/ml): 48 h
time to close up the cellular gap ([2]; Doxorubicin 0.1 mcg/ml, control 48 hours): 45 h
dead cells ([3]; Doxorubicin 0.64 mcg/ml): 39%
live cells ([3]; Doxorubicin 0.64 mcg/ml): 61%
dead cells ([3]; Doxorubicin 16 mcg/ml): 95%
live cells ([3]; Doxorubicin 16 mcg/ml): 5%
IC50 ([3]; crystal violet and trypan blue, read-out: concentration that kills 50% of the tumor cells): 3.2 µg/mL (≈ 5.89 µM)
IC50 ([3]; read-out: dose that killed 50% of tumor cells): 3.2 µg/mL (≈ 5.89 µM)
time of restoration of the damaged monolayer [4]: 72 h
time of restoration of the cell interval ([5]; Doxorubicin 15 ng/ml or 5 ng/ml): > 72 h
death of cells ([5]; Doxorubicin 15 ng/ml, within 96 hours after administration): 95%
effect on normal NRK cells ([6]; 3 to 0.01 mcg/ml): causing death of normal NRK cells
live cells ([6]; within 30 min): live cells are virtually absent
live cells ([6]; within 48 hours): live cells are absent
effect on normal NRK cells ([6]; 400 to 16 mcg/ml, 48 hours): complete death
time of restoration of the cell monolayer (A-549 cell line; Doxorubicin 0.02 mcg/ml): 60 h
time of restoration of the cell monolayer (A-549 cell line; Doxorubicin 0.2 mcg/ml): < 24 h
time of full restoration of the cell monolayer (A-549 cell line; Doxorubicin (2 mcg/ml per FIG. 113-116)): 24 h
period of closing of the gap [7]: 48 h

[Cl-].[K+] [K]
dose for 50% live, 50% dead [3]: about 2 mg

O=S(=O)([O-])[O-].[Mg+2] [Mg]
dose for 50% kill, times as high as Doxorubicin EBEWE [3]: 1600 times
dose for 50% live, 50% dead [3]: about 5 mg

O=S(=O)([O-])[O-].[Zn+2] [Zn]
dose for 50% kill, times as high as Doxorubicin EBEWE [3]: 100 times
dead tumor cells ([3]; Zn sulfate 16 mcg/ml): 7%
live tumor cells ([3]; Zn sulfate 16 mcg/ml): 93%
dead tumor cells [3, 10]: 75%
live tumor cells [3, 10]: 25%

O=S(=O)([O-])[O-].[64Zn+2] [^64Zn—Z2]
phenotype of normal cells [8]: has not changed
CD44 marker positive cells, H-Score scale ([9]; 3.2 mcg/ml): 118 units
N-cadherin level ([9]; ^64Zn—Z2 3.2 and 0.128 mcg/ml): does not change
number of E-cadherin-positive cells ([9]; ^64Zn—Z2 3.2 and 0.128 mcg/ml): grows
E-cadherin-positive cells, H-Score scale ([9]; dose D1 0.128 mcg/ml): 300

Reference: patent US10857180B2, “Pharmaceutical composition for improving health, cure abnormalities and degenerative disease, achieve anti-aging effect of therapy and therapeutic effect on mammals and method thereof” (priority 2014, dated 2020)
